Experiments:
Oral half-life = format: in vivo; settings: plasma
Source text: Compound BB's oral exposure is high in rat, dog and monkey. Good oral bioavailability and low clearance in rodent and non-rodent animal species results in high oral exposure.

tumor growth = assay: Tumor growth with Compound BB alone or co-administered with 5-FU (FIG. 35); format: in vivo
[1] = system: CD206 population in LLC tumors; assay: CD206 levels of macrophages in LLC tumors (FACS); format: in vivo, mouse; settings: alone and in combination with cyclophosphamide
Protocol: Tumors were harvested on the last day or if the vehicles reached approx. 3000 mm^3. Tumors were cut in half. One half was cut in half again with ½ fixed in 10% NBF, and the other was frozen in OCT for frozen sections. The remaining half was processed to single cell suspension and evaluated by FACS using two panels. Antibodies used for staining for FACS were as follows. Staining with CD4 and CD8a: CD45-AF700 (BDB560510) at 1.25 ug/ml; […] Staining with CD11b and GR-1: CD45-AF700 (BDB560510) at 1.25 ug/ml; […] CD45-AF700 (BDB560510) at 1.25 ug/ml; […] Staining with MDSC panel: CD45-AF700 (BDB560510) at 1.25 ug/ml; […] Ly6C APC at 2.5 ug/ml; and Ly6G FITC at 2.5 ug/ml.

[2] = system: RANKL driven differentiation of osteoclasts from bone marrow macrophages; assay: Osteoclast differentiation assay (TRAP); format: cell-based, mouse; settings: TRAP positive cells, FIG. 17
Protocol: Long bones from young C57B6 mice were harvested and bone marrow was extruded by gentle lavage of the bone marrow cavities with a 28 gage needle. The cells were screened, and red blood cells were removed using red blood cell lysis buffer (Sigma). Bone marrow cells were differentiated to macrophages using 20 ng/ml mouse MCSF (RnD systems) for 3 days (RPMI and 20% FCS). The cell were washed with PBS, and lifted with Accutase for 10 minutes.
The bone marrow macrophage cells were plated at 150,000 cells per well in a 96 well plate in a MEM 10% FCS. […] Then 25 ng/ml mouse MCSF with or without mouse RANKL (100 ng/ml, RnD systems) was added for 6 days. Media changes (including drugs) were done at day 3 and day 5. The cells were then fixed and stained with the tartrate resistant acid phosphatase (TRAP) assay kit from Sigma according to the manufactures instructions. TRAP positive cells (osteoclasts and cells undergoing an osteoclastic differentiation) in a transect of the triplicate wells (at 20× […]) were manually counted by going through the widest part of each well.

[3] = Stability in simulated gastric fluid; format: physicochemical
Source text: The phyiscochemical properties of Compound BB are drug-like, and suitable for use of the compound as a drug.

human T cells = assay: Concanavalin A-induced model for activation of human T cells (IFN-γ); format: cell-based; settings: isoform selective concentrations
CT26 tumors = assay: CT26 colon cancer allograft model; format: in vivo, mouse; settings: FIG. 28
[4] = system: pAKT S473 in T cells and monocytes; assay: Ex vivo whole blood CXCL12 stimulation of phospho-AKT, LLC-bearing mice; format: in vivo, mouse; settings: 12 days QD PO, 2 h post dose
Protocol: C57 BL/6 Albino mice were implanted with 1×10^6 cells in a SC injection in the hind flank. The cell implant material was generated from brei that was passaged from mouse to mouse. Treatment started when tumors were between 160-180 mm^3. Mice were dosed for 12 days, QD, PO with vehicle, 15, 7.5 or 3 mg/kg. On day 12 mice were dosed and terminal blood was collected 2 h post dose by cardiac stick collection. Blood was placed in EDTA K2 collection tube and stored at room temp for PD analysis.
Blood from each animal was aliquotted into 2 plates and warmed to 37° C. degrees. PBS was added to one plate as an unstimulated control. Murine CXCL12/SDF-1 was added to the second plate to a final concentration of 800 ng/mL and plate was returned to the 37° C. degree block. After 2 minutes of incubation, blood was lysed and fixed using paraformaldehyde. Samples were washed and frozen until flow cytometric analysis. T cells were gated using an antibody to CD3 and monocytes were gated as LY6G^− LY6C^high. Intracellular pAKT S473 was measured and percent positive was used for graphing.

LLC tumor [5] = assay: LLC tumor brei model with or without cyclophosphamide; format: in vivo, mouse; settings: BB 15 mg/kg QD PO; cyclophosphamide 50 mg/kg EOD IP, FIG. 48
Protocol: In this experiment, treatment began when tumors reached approx. 150 mm^3—around day 12. Caliper and xenogen images were monitored. Treatment groups n=13-15/group. […] Samples for FACs analysis were collected on day 23 post implant. Using FACS, cells were assayed for the level of CD11b and Gr-1.

MC38 tumors = assay: MC38 colon cancer model; format: in vivo, mouse
Protocol: In this model, a syngeneic colon cancer cell line is run subcutaneously. The experimental setup was as follows.
Female CR C57BL/6 mice were set up with 1×10^6 MC38 tumor cells in 0% Matrigel sc in flank. The cell injection volume was 0.05 ml per mouse. When tumors reached an average size of […], a pair match was made and treatment began. The tumor was measured by caliper biweekly.
The dosing volume was 5 mL/kg.
For all animals, blood was collected by terminal cardiac puncture under isoflurane anesthesia. The blood was processed for plasma. In addition, tumor samples were collected.
At study end, tumors were isolated, fixed in 10% neutral buffered formalin and embedded in paraffin for histologic analysis. Tumor sections from both vehicle and Compound BB monotherapy were cut for immunohistochemical analysis. T-cells within the tumor sections were identified utilizing a CD3-specific antibody via automated immunohistochemistry equipment (Ventana). Once stained, slides were digitalized via Aperio slide scanning equipment. Next, stained tumor sections were quantified via Definians software to assess the percentage of CD3 positive cells within each tumor. […] A trendline was added to the vehicle and Compound BB monotherapy graphs.

LLC tumor [6] = assay: Lewis Lung Carcinoma (LLC tumor brei) model; format: in vivo, mouse; settings: FIG. 25A, 25B
Protocol: Compound BB was tested in the Lewis Lung Carcinoma model, which is known in the art and briefly described hereinabove.
LLC tumor brei model was prepared and injected subcutaneously into a mouse in the hind flank region. The tumor brei was prepared as follows. LL2-Luc tumor cells were grown in culture in DMEM+10% FBS. Cells were implanted @ 1×10^6 cells/100 uL SC in the flank of C57 Albino mice (male) When tumors reached 1000 mm3, tumors were harvested. Only the white, living tissue was harvested. Any material containing visable blood or necrotic area was isolated away from the tumor tissue. Tumor tissue was placed in a Dounce tissue homoginized with 5 mLs of warm DMEM (no FBS). About 1-2 grams of tumor tissue was collected, homogenized, pooled into 50 mL falcon tube, and cells were counted. Cells were spinned @ […], and FBS was pooled off Cells were resuspended to equal 1×10^7 cells/mL with sterile PBS. 100 uL of cells/mouse SC at the hind flank region were implanted. This process was repeated one more time before conducting brei tumor efficacy study.

GL261-Luc tumors = assay: GL261-Luc murine glioblastoma subcutaneous model; format: in vivo, mouse; settings: 15 mg/kg QD, PO, FIG. 47A

C[C@H](NC(=O)c1c(N)nn2cccnc12)c1cc2cccc(C#Cc3cnn(C)c3)c2c(=O)n1-c1ccccc1 [Compound BB]
half-life (Oral half-life; dog, 5 mg/kg): ~7.1 h | half-life (Oral half-life; monkey, 5 mg/kg): ~10.2 h | half-life (Oral half-life; rat, 7.5 mg/kg): ~3.3 h | tumor growth (tumor growth; Compound BB alone (FIG. 35)): reduction in tumor growth | tumor growth (tumor growth; co-administration of Compound BB and 5-FU (FIG. 35)): further reduction | CD206 population in LLC tumors [1]: decrease in the CD206 population | RANKL driven differentiation of osteoclasts from bone marrow macrophages [2]: prevents RANKL driven differentiation of osteoclasts | Stability in 38° simulated gastric fluid [3]: > 4 h | effect on IFN-γ (human T cells): little to no effect | MDSC expansion after cyclophosphamide treatment (CT26 tumors): expansion is decreased | Ex vivo whole blood CXCL12 stimulation of phospho-AKT in T cells ([4]; FIG. 58): inhibits the ex vivo whole blood stimulation of phosphor-AKT in T cells | Ex vivo whole blood CXCL12 stimulation of phospho-AKT in monocytes ([4]; FIG. 59): inhibits the ex vivo whole blood stimulation of phosphor-AKT in monocytes | Tumor growth, LLC tumor brei model (LLC tumor [5]): reduced tumor growth by about the same amount | Intratumoral CD3+ T cells (MC38 tumors; MC38 tumors vs vehicle, FIG. 30): significantly more intratumoral CD3+ T cells | Tumor growth, MC38 colon cancer model (MC38 tumors; monotherapy, FIG. 29A): significantly inhibited tumor growth | Tumor growth, Lewis Lung Carcinoma model (LLC tumor [6]): demonstrated single agent activity | Tumor volume, GL-261 syngeneic glioma model (GL261-Luc tumors): reduced tumor volume

Reference: patent publication US11541059B2, “Heterocyclic compounds and uses thereof” (Infinity Pharmaceuticals, Inc., priority 2014, dated 2023)
